In patent US7820669B2 (NYCOMED GmbH, priority 2004, dated 2010):

How the values were obtained:
[1] = target: T1, PDE4B2 (Homo sapiens, UniProt Q07343); test: Inhibition of PDE4B2 activity, modified [3H]cAMP SPA (scintillation proximity assay) test; type: biochemical; settings: recombinant PDE4B2 expressed in SF21 insect cells; 0.5 μM cAMP; 15 min at 37° C.; read-out: PDE4 Inhibition [measured as -logIC50 (mol/l)] (converted)
T1 construct: made in house; host or cells: SF21 insect cells (baculovirus generated in SF9 cells, pCR-Bac vector)
Method: PDE4B2 (GB no. M97515) was a gift of Prof. M. Conti (Stanford University, USA). It was amplified from the original plasmid (pCMV5) via PCR with primers Rb9 (5′-[…]-3′) and Rb10 (5′-[…]-3′) and cloned into the pCR-Bac vector (Invitrogen, Groningen, NL).
The recombinant baculovirus was prepared by means of homologous recombination in SF9 insect cells. The expression plasmids were cotransfected with Bac-N-Blue (Invitrogen, Groningen, NL) or Baculo-Gold DNA (Pharmingen, Hamburg) using a standard protocol (Pharmingen, Hamburg). Wt vrus-free recombinant virus supernatants were selected using plaque assay methods. After that, high-titre virus supernatants were, prepared by amplifying 3 times. PDE4B2 was expressed in SF21 cells by infecting 2×10^6 cells/ml with an MOI (multiplicity of infection) between 1 and 10 in serum-free SF900 medium (Life Technologies, Paisley, UK). The cells were cultured at 28° C. for 48-72 hours, after which they were pelleted for 5-10 min at 1000 g and 4° C.
The SF21 insect cells were resuspended, at a concentration of approx. 10^7 cells/ml, in ice-cold (4° C.) homogenization buffer (20 mM Tris, pH 8.2, containing the following additions: 140 mM NaCl, 3.8 mM KCl, 1 mM EGTA, 1 mM MgCl2, 10 mM β-mercaptoethanol, 2 mM benzamidine, 0.4 mM Pefablock, 10 μM leupeptin, 10 μM pepstatin A, 5 μM trypsin inhibitor) and disrupted by ultrasonication. The homogenate was then centrifuged for 10 min at 1000×g and the supernatant was stored at −80° C. until sub-sequent use (see below). The protein content was determined by the Bradford method (BioRad, Munich) using BSA as the standard.
PDE4B2 activity was inhibited by the compounds according to the invention in a modified SPA (scintillation proximity assay) test, supplied by Amersham Biosciences (see procedural instructions “phosphodiesterase [3H]cAMP SPA enzyme assay, code TRKQ 7090”), carried out in 96-well microtitre plates (MTP's). The test volume is 100 μl and contains 20 mM Tris buffer (pH 7.4), 0.1 mg of BSA (bovine serum albumin)/ml, 5 mM Mg^2+, 0.5 μM cAMP (including about 50,000 cpm of [3H]cAMP), 1 μl of the respective substance dilution in DMSO and sufficient recombinant PDE (1000×g supernatant, see above) to ensure that 10-20% of the cAMP is converted under the said experimental conditions. […] After a preincubation of 5 min at 37° C., the reaction is started by adding the substrate (cAMP) and the assays are incubated for a further 15 min; after that, they are stopped by adding SPA beads (50 μl). In accordance with the manufacturer's instructions, the SPA beads had previously been resuspended in water, but were then diluted 1:3 (v/v) in water; the diluted solution also contains 3 mM IBMX to ensure a complete PDE activity stop. After the beads have been sedimented (>30 min), the MTP's are analyzed in commercially available luminescence detection devices. The corresponding IC50 values of the compounds for the inhibition of PDE4B2 activity are determined from the concentration-effect curves by means of non-linear regression.

T1 sequence (Q07343 1-564 isoform Q07343-2): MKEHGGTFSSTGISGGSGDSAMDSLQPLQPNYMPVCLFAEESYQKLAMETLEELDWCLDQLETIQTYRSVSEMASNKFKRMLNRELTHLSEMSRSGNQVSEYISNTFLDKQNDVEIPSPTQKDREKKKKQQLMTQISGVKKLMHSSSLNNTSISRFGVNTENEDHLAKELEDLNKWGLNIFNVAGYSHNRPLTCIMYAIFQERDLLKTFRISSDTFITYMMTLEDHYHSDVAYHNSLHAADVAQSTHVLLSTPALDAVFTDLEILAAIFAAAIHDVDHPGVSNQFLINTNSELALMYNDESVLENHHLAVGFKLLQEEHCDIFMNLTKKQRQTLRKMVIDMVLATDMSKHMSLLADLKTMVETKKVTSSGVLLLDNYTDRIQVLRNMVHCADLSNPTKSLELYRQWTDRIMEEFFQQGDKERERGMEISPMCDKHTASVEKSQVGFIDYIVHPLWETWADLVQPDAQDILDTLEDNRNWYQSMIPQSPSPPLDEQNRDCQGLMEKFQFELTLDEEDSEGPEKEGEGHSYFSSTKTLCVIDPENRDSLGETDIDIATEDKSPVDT

| IC50 [1] | melting point | SMILES |
| --- | --- | --- |
| 1.29 nM | 177 to 179 °C | COc1ccc(C2=NN(C3CCN(C(=O)CN4C(=O)CCC4=O)CC3)C(=O)C(C)(C)C2)cc1OC [Compound 4, 1-(2-{4-[3-(3,4-Dimethoxy-phenyl)-5,5-dimethyl-6-oxo-5,6-dihydro-4H-pyridazin-1-yl]-piperidin-1-yl}-2-oxo-ethyl)-pyrrolidine-2,5-dione] |
| 6.17 nM | 69 to 74 °C | CCC1(CC)CC(c2ccc(OC)c(OC)c2)=NN(C2CCN(CC(N)=O)CC2)C1=O.Cl [Compound 15, 2-{4-[3-(3,4-Dimethoxy-phenyl)-5,5-diethyl-6-oxo-5,6-dihydro-4H-pyridazin-1-yl]-piperidin-1-yl}-acetamide Hydrochloride] |
|  | 172 to 174 °C | COc1ccc(C2=NN(C3CCN(S(=O)(=O)N(C)C)CC3)C(=O)C(C)(C)C2)cc1OC [Compound 12, 4-[3-(3,4-Dimethoxy-phenyl)-5,5-dimethyl-6-oxo-5,6-dihydro-4H-pyridazin-1-yl]-piperidine-1-sulfonic Acid Dimethylamide] |
| 25.1 nM | 211 to 213 °C | COc1ccc(C2=NN(C3CCN(CCC(=O)N4CCOCC4)CC3)C(=O)C(C)(C)C2)cc1OC.Cl [Compound 2, 6-(3,4-Dimethoxy-phenyl)-4,4-dimethyl-2-[1-(3-morpholin-4-yl-3-oxo-propyl)piperidin-4-yl]-4,5-dihydro-2H-pyridazin-3-one Hydrochloride] |
| 0.646 nM | 210 to 211 °C | COc1ccc(C2=NN(C3CCN(C(=O)CN4C(=O)COCC4=O)CC3)C(=O)C(C)(C)C2)cc1OC [Compound 17, 4-(2-{4-[3-(3,4-Dimethoxy-phenyl)-5,5-dimethyl-6-oxo-5,6-dihydro-4H-pyridazin-1-yl]-piperidin-1-yl}-2-oxo-ethyl)-morpholine-3,5-dione] |
|  | 193 to 194 °C | COc1ccc(C2=NN(C3CCN(C(=O)CN4C(=O)c5ccccc5C4=O)CC3)C(=O)C(C)(C)C2)cc1OC [Compound 21, 2-(2-{4-[3-(3,4-Dimethoxy-phenyl)-5,5-dimethyl-6-oxo-5,6-dihydro-4H-pyridazin-1-yl]-piperidin-1-yl}-2-oxo-ethyl)-isoindole-1,3-dione] |

The next lines start with the compound.

| SMILES | IC50 [1] | melting point |
| --- | --- | --- |
| COc1ccc(C2=NN(C3CCN(CC(N)=O)CC3)C(=O)C(C)(C)C2)cc1OC [Compound 3] | 1.86 nM |  |
| COc1ccc(C2=NN(C3CCN(C(=O)CN4CCN(C)CC4)CC3)C(=O)C(C)(C)C2)c2c1OC(C)(C)C2 [Compound 19, 6-(7-Methoxy-2,2-dimethyl-2,3-dihydro-benzofuran-4-yl)-4,4-dimethyl-2-{1-[2-(4-methyl-piperazin-1-yl)-ethanoyl]-piperidin-4-yl}-4,5-dihydro-2H-pyridazin-3-one] |  | 121 to 123 °C |
| COc1ccc(C2=NN(C3CCN(S(=O)(=O)c4ccccc4C#N)CC3)C(=O)C(C)(C)C2)cc1OC [Compound 1] | 0.295 nM | 190 to 192 °C |
| CCC1(CC)CC(c2ccc(OC)c(OC)c2)=NN(C2CCN(S(=O)(=O)c3ccccc3C#N)CC2)C1=O [Compound 16, 2-{4-[3-(3,4-Dimethoxy-phenyl)-5,5-diethyl-6-oxo-5,6-dihydro-4-pyridazin-1-yl]-piperidin-1-sulfonyl}-benzonitrile] | 0.355 nM | 156 to 157 °C |
| COc1ccc(C2=NN(C3CCN(S(=O)(=O)c4ccccc4C)CC3)C(=O)C(C)(C)C2)cc1OC [Compound 5, 6-(3,4-Dimethoxy-phenyl)-4,4-dimethyl-2-[1-(toluene-2-sulfonyl)-piperidin-4-yl]-4,5-dihydro-2H-pyridazin-3-one] | 0.741 nM | 132 to 133 °C |
| COc1ccc(C2=NN(C3CCN(S(=O)(=O)c4cccc(C)c4)CC3)C(=O)C(C)(C)C2)cc1OC [Compound 11, 6-(3,4-Dimethoxy-phenyl)-4,4-dimethyl-2-[1-(toluene-3-sulfonyl)-piperidin-4-yl]-4,5-dihydro-2H-pyridazin-3-one] |  | 150 to 152 °C |
| COc1ccc(C2=NN(C3CCN(C(=O)CN4C(=O)CCC4=O)CC3)C(=O)C(C)(C)C2)c2c1OC(C)(C)C2 [Compound 20, 1-(2-{4-[3-(7-Methoxy-2,2-dimethyl-2,3-dihydro-benzofuran-4-yl)-5,5-dimethyl-6-oxo-5,6-dihydro-4H-pyridazin-1-yl]-piperidin-1-yl}-2-oxo-ethyl)-pyrrolidine-2,5-dione] |  | 240 to 241 °C |
| CCC1(CC)CC(c2ccc(OC)c(OC)c2)=NN(C2CCN(C(=O)c3ccccc3)CC2)C1=O [Compound 14, 6-(3,4-Dimethoxy-phenyl)-4,4-diethyl-2-[1-(1-phenyl-methanoyl)-piperidin-4-yl]-4,5-dihydro-2H-pyridazin-3-one] |  | 160 to 161 °C |
| COc1ccc(C2=NN(C3CCN(S(=O)(=O)c4ccccc4OC(F)(F)F)CC3)C(=O)C(C)(C)C2)cc1OC [Compound 7, 6-(3,4-Dimethoxy-phenyl)-4,4-dimethyl-2-[1-(2-trifluoromethoxy-benzenesulfonyl)-piperidin-4-yl]-4,5-dihydro-2H-pyridazin-3-one] | 2.29 nM | 143 to 144 °C |
| COc1ccc(C2=NN(C3CCN(C(=O)c4ccccc4OC)CC3)C(=O)C(C)(C)C2)cc1OC [Compound 8, 6-(3,4-Dimethoxy-phenyl)-2-{1-[1-(2-methoxy-phenyl)-methanoyl]-piperidin-4-yl}-4,4-dimethyl-4,5-dihydro-2H-pyridazin-3-one] | 0.209 nM | 157 to 159 °C |
| CCC1(CC)CC(c2ccc(OC)c(OC)c2)=NN(C2CCN(C(=O)c3ccccc3OC)CC2)C1=O [Compound 18, 6-(3,4-Dimethoxy-phenyl)-4,4-diethyl-2-{1-[1-(2-methoxy-phenyl)-methanoyl]-piperidin-4-yl}-4,5-dihydro-2H-pyridazin-3-one] |  | 160 to 162 °C |
| COc1ccc(C2=NN(C3CCN(CC(N)=O)CC3)C(=O)C(C)(C)C2)c2c1OC(C)(C)C2 [Compound 13, 2-{4-[3-(7-Methoxy-2,2-dimethyl-2,3-dihydro-benzofuran-4-yl)-5,5-dimethyl-6-oxo-5,6-dihydro-4H-pyridazin-1-yl]-piperidin-1-yl}-acetamide] | 0.417 nM | 215 to 216 °C |
| COc1ccc(C2=NN(C3CCN(S(=O)(=O)c4ccc(C)cc4)CC3)C(=O)C(C)(C)C2)cc1OC [Compound 10, 6-(3,4-Dimethoxy-phenyl)-4,4-dimethyl-2-[1-(toluene-4-sulfonyl)-piperidin-4-yl]-4,5-dihydro-2H-pyridazin-3-one] |  | 161 to 164 °C |
| COc1ccc(C2=NN(C3CCN(S(=O)(=O)c4cccc(C#N)c4)CC3)C(=O)C(C)(C)C2)cc1OC [Compound 9, 3-{4-[3-(3,4-Dimethoxy-phenyl)-5,5-dimethyl-6-oxo-5,6-dihydro-4H-pyridazin-1-yl]-piperidine-1-sulfonyl}-benzonitrile] |  | 158 to 160 °C |
| COc1ccc(C2=NN(C3CCN(S(=O)(=O)c4ccc(C#N)cc4)CC3)C(=O)C(C)(C)C2)cc1OC [Compound 6, 4-{4-[3-(3,4-Dimethoxy-phenyl)-5,5-dimethyl-6-oxo-5,6-dihydro-4H-pyridazin-1-yl]-piperidine-1-sulfonyl}-benzonitrile] |  | 161 to 163 °C |
